Assay results published in ChEMBL document CHEMBL1201862, “PubChem BioAssay data set” (2004).
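Dose response: 5 concentrations. Exposure: 48 h. Format: 96-well plates. Endpoint: linear interpolation; highest concentration if not reached. GI50: concentration for 50% inhibition of growth.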 Activity calls are given as the source filed them. Cut-off read from the data, not from the text of the source: active = GI50 up to about 1.1 µM and inactive = higher.

How the values were obtained:
Test in all cases: NCI-60 cell line screen, 48 h
M19-MEL = test system: M19-MEL
MDA-N = test system: MDA-N
T47D = test system: T47D
SR = test system: SR
BT-549 = test system: BT-549
Hs-578T = test system: Hs-578T
RXF 631 = test system: RXF 631
LXFL 529 = test system: LXFL 529

SMILES | GI50 (M19-MEL) | GI50 (MDA-N) | GI50 (T47D) | GI50 (SR) | GI50 (Hs-578T) | further results
Cn1c(=O)[nH]c2nncnc2c1=O | 43.7 µM (inactive) | – | – | – | – | –
Nc1cccc2c1C1=NNC(=O)CC1C2 (centres undefined) | > 100 µM (inactive) | – | – | – | – | –
C[C@]12CC[C@@H]3c4ccc(OCCN5CCCC5)cc4CC[C@H]3[C@@H]1CCC2=O | – | 22 µM (inactive) | 36.1 µM (inactive) | 29.9 µM (inactive) | – | –
CSc1nc(CO)c(CO)n1C | > 100 µM (inactive) | – | – | – | – | –
NC(CCP(=O)(O)CCC1C=CC=CC1)C(=O)O (centres undefined) | – | > 100 µM (inactive) | > 100 µM (inactive) | > 100 µM (inactive) | > 100 µM (inactive) | GI50 (BT-549): > 100 µM (inactive)
CSc1nc(NC2OC(CO)C(O)C(O)C2O)c(N)c(=O)[nH]1 (centres undefined) | > 100 µM (inactive) | – | – | – | – | –
COc1ccc2c(c1O)-c1cc(O)cc3c1[C@@H](C2)N(C)CC3 | 67.8 µM (inactive) | – | – | – | – | –
O=C(c1ccccc1)c1ccc2n[se]nc2c1 | – | – | – | – | – | GI50 (RXF 631): 18.8 µM (inactive); GI50 (LXFL 529): 69.8 µM (inactive)
COc1cc(-c2cc(=O)c3c(O)c(CC=C(C)C)c(O)cc3o2)ccc1O | – | 8.49 µM (inactive) | 9.77 µM (inactive) | 14.7 µM (inactive) | 29.5 µM (inactive) | GI50 (BT-549): 21.6 µM (inactive)
CCOC(=O)CSc1nc(N)c2c(-c3ccc(OC)c(OC)c3)c3c(nc2n1)CCCC3 | – | > 100 µM (inactive) | > 100 µM (inactive) | > 100 µM (inactive) | 17.1 µM (inactive) | GI50 (BT-549): 61.9 µM (inactive)
O=C(Nc1ccccc1F)c1c(O)nc2sccn2c1=O | – | > 10 µM (inactive) | > 10 µM (inactive) | > 10 µM (inactive) | > 10 µM (inactive) | –
